Laboratory results taken from US20210188856A1, “CRYSTAL FORM OF HYDROCHLORIDE OF PYRAZOLOHETEROARYL DERIVATIVE AND PREPARATION METHOD” (JIANGSU HENGRUI MEDICINE CO., LTD., priority 2018, published 2021).

Key:
human TLR7 = biological target: T1, human TLR7 (Homo sapiens, UniProt Q9NYK1); assay: Agonistic effect on human TLR7 (HEK-Blue hTLR7 cells); format: cell-based
T1 construct: host or cells: HEK-Blue hTLR7 (HEK293-derived) stably transfected cells
T1 sequence (Q9NYK1 27-1049): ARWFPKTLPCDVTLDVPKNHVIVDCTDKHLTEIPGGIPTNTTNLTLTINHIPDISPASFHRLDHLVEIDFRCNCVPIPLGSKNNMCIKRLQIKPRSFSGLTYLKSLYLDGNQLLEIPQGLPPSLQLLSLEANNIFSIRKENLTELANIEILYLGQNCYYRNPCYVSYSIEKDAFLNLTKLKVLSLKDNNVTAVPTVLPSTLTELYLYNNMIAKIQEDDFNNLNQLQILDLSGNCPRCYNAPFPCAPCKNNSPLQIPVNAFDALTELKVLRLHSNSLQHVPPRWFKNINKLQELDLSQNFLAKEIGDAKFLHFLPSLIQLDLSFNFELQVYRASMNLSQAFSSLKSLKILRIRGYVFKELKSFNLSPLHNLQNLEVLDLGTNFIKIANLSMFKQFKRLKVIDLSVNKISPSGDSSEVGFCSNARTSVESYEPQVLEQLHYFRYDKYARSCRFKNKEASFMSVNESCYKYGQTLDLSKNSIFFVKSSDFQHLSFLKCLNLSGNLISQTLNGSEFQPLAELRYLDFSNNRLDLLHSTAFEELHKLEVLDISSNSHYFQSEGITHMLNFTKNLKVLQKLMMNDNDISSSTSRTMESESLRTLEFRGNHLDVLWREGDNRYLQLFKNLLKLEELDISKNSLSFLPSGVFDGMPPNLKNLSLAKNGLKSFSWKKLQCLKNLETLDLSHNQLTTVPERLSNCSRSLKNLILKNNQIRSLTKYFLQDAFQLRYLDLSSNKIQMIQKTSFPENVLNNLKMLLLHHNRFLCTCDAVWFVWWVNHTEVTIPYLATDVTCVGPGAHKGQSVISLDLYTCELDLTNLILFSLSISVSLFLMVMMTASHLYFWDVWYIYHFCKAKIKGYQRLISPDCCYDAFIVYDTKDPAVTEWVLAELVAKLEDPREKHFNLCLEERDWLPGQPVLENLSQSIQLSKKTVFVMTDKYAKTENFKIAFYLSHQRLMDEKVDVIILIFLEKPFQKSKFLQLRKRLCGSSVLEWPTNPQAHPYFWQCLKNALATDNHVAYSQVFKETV
Procedure: The agonistic effect of the compound represented by formula (I) on the hTLR7 protein expressed in HEK-Blue™ hTLR7 stably transfected cells was determined by the following experimental method:
A bag of HEK-Blue detection dry powder was dissolved in 50 mL of water free of endotoxin, and the solution was then placed in an incubator at 37° C. for 10 minutes followed by sterile filtration to prepare a HEK-Blue detection medium. The compound was firstly formulated into a 20 mM stock solution, then diluted with pure DMSO to a maximum concentration of 6×10^6 nM, and a total of 10 points were obtained by a 3-fold gradient dilution.
The above formulated compound was firstly diluted 20-fold with the medium, then 20 μL of the diluted compound was added to each well. The supernatant was removed from the HEK-Blue™ hTLR7 cells, to which 2-5 mL of pre-warmed PBS was then added. The cells were placed in an incubator for 1-2 minutes, gently pipetted, and counted by trypan blue staining. The cells were re-suspended in the HEK-Blue detection medium, and the concentration was adjusted to 2.2×10^5 cells/mL. […]
The plate was read with a microplate reader at a wavelength of 620 nm. The corresponding OD values were obtained, and the EC50 value of the compound was calculated by Graphpad Prism.

CYP3A4 = biological target: T2, CYP3A4 (Homo sapiens, UniProt P08684); assay: Inhibition of midazolam metabolite site of CYP3A4 in human liver microsome; format: in vitro ADME
T2 construct: CYP3A4 in human liver microsome; tissue Corning Gentest; host or cells: human liver microsomes
T2 sequence (P08684 whole entry): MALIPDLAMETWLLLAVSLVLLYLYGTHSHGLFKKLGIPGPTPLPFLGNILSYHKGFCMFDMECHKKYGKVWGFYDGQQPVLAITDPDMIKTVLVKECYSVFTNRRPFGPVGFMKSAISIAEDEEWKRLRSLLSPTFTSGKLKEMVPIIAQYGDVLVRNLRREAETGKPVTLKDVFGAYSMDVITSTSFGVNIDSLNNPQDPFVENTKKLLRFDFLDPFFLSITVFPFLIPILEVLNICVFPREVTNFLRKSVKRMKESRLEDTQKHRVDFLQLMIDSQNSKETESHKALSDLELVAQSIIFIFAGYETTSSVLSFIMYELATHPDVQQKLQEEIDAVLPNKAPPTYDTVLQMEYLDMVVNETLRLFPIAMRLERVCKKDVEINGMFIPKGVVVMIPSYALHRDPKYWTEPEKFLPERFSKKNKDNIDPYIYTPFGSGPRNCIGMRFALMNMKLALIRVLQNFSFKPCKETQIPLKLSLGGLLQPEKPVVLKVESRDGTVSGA
Procedure: The effect of the compound represented by formula (I) on the enzyme activity of midazolam metabolite site of CYP3A4 in human liver microsome was determined by the following experimental method:
100 mM PBS buffer was formulated, which was then used to formulate 2.5 mg/mL microsome solution and 5 mM NADPH solution. The 5× concentration of the compound working solution was diluted with PBS gradient (150, 50, 15, 5, 1.5, 0.15, 0.015, 0 μM). The 5× concentration of ketoconazole working solution was diluted with PBS gradient (150, 50, 15, 5, 1.5, 0.15, 0.015, 0 μM). […] working solution was diluted with PBS to a concentration of 50 μM.
20 μL of the 2.5 mg/mL microsome solution, […], 20 μL of MgCl2 solution and 20 μL of the compound working solution (150, 50, 15, 5, 1.5, 0.15, 0.015, 0 μM, different reaction systems for each concentration) were taken respectively and mixed well. For the positive control group, the compound was replaced with the same concentration of ketoconazole. The mixture together with the 5 mM NADPH solution was pre-incubated at 37° C. for 5 minutes. After 5 minutes, 20 μL of NADPH was added to each well, the reaction was started and incubated for 30 minutes. […] 80 μL of the supernatant was taken and analyzed by LC-MS/MS.
The data was calculated by Graphpad Prism to obtain the IC50 value of the compound on the midazolam metabolite site of CYP3A4.

CCCCOc1nc(N)c2cnn(Cc3ccc(CN4CCCC4)cc3)c2n1 [compound represented by formula (I), 6-Butoxy-1-(4-(pyrrolidin-1-ylmethyl)benzyl)-1H-pyrazolo[3,4-d]pyrimidin-4-amine]
agonistic effect on human TLR7 (in words) (human TLR7; HEK-Blue hTLR7 cells): significant agonistic effect
EC50 (human TLR7; HEK-Blue hTLR7 stably transfected cells): 0.028 µM
inhibitory effect on midazolam metabolic site of CYP3A4 (in words) (CYP3A4): no inhibitory effect
IC50 (CYP3A4; midazolam probe): 14 µM
